A short description of data set [1]: Animal test: prevention of obesity under high-fat diet. Format: in vivo, C57BL/6 mice. Conditions: for increase in body weight: 10 mg/kg/day orally over a 78-day period of high-fat diet (feed with 35 % fat), vehicle group 102 %; for increase in body weight relative to the vehicle group: 10 mg/kg/day orally, 78-day high-fat diet, fraction of vehicle group's increase. The protocol:
Animal test was performed with mice in order to confirm the in vivo effect of HK101225. 14-weeks old C57BL/6 mice (SLC Co.) were used and a feed containing 35 % of fat was given to induce obesity. A vehicle, GW501516 (10 mg/kg/day) and HK101225 (10 mg/kg/day) were orally administered over a 78-day period of high-fat diet. […] Thus, it was confirmed that HK101225 has a strong prevention effect against obesity.

Data set [2] is described as follows: GTT (glucose tolerance test): improvement of diabetes. Format: in vivo, mice. Conditions: after 78-day oral administration; for change of blood sugar level with time: followed to 120 minutes. The procedure: GTT (glucose tolerance test) was performed in order to confirm the diabetic improvement effect of the compound of the present invention. A vehicle, GW501516 and HK101225 were orally administered to mice over a 78-day period. Then, glucose (1.5 g/kg) was abdominally administered and change of blood sugar level with time was checked.

For a further data set, the target named is T1, PPARα (Homo sapiens, UniProt Q07869).
T1 construct: Full-length PPARs plasmid DNA, reporter DNA, which has luciferase activity; expressed in transfected cells; host or cells: CV-1 cells
T1 sequence (Q07869 1-468): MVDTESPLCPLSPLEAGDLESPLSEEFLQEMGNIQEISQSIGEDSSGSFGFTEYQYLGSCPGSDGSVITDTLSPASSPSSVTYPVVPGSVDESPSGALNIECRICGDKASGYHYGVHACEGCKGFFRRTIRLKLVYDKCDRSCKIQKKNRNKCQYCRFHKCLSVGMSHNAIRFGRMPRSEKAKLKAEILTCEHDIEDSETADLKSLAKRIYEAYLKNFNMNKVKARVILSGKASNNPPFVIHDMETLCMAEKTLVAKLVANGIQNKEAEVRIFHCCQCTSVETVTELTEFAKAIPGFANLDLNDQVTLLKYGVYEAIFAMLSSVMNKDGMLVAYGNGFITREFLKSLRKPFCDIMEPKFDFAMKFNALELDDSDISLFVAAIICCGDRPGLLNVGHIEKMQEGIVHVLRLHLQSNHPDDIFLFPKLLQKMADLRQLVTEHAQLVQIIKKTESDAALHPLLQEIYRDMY
The data set can be described thus: Transfection assay (luciferase reporter, full-length PPARs plasmid DNA) in CV-1 cells. Format: cell-based. Conditions: 24 hours treatment, luciferase calibrated with β-galactosidase. The procedure:
(§1) Transfection assay was performed using CV-1 cells. The cells were cultured with a DMEM medium containing 10 % FBS, DBS (delipidated) and 1 % penicillin/streptomycin in 37 °C of a transfection assay culture system containing 5 % of carbon dioxide on a 96-well plate. Test was performed in four stages - cell inoculation, transfection, treatment with the compound of the present invention and confirmation. The CV-1 cells were inoculated on the 96-well plate, 5,000 cells/well. Transfection was performed 24 hours later. Full-length PPARs plasmid DNA, reporter DNA, which has luciferase activity and thus enables confirmation of the activity for PPARs, and β-galactosidase DNA, which offers effective information on the transfection, were used. HK101225 prepared in Example 4 was dissolved in dimethylsulfoxide (DMSO) and treated to the cells at various concentrations. After 24 hours of culturing in an incubator, the cells were lysed with a lysis buffer and luciferase activity and β-galactosidase activity were measured using a luminometer and a microplate reader. The measured luciferase activity was calibrated with the β-galactosidase activity. The result was depicted on a graph and EC50 was determined.
Background: In a reporter assay the amount or activity of a reporter protein is the signal.

The target of another data set is T2, PPARγ (Homo sapiens, UniProt P37231).
T2 construct: Full-length PPARs plasmid DNA, reporter DNA, which has luciferase activity; expressed in transfected cells; host or cells: CV-1 cells
T2 sequence (P37231 1-505): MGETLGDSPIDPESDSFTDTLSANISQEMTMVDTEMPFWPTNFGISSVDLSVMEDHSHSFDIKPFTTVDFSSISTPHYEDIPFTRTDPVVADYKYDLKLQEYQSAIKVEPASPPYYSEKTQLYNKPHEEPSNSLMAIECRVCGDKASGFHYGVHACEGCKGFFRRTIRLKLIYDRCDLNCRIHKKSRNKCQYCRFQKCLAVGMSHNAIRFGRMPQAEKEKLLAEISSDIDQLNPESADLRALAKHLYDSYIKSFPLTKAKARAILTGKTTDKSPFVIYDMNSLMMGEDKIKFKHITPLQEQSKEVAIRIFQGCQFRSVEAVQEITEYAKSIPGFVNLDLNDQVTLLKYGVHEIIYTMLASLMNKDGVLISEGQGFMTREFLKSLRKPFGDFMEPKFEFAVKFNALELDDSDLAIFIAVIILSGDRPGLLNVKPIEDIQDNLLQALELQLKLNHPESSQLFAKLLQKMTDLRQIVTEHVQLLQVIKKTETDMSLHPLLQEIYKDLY
Described as above. Format: cell-based. Conditions: 24 hours treatment, luciferase calibrated with β-galactosidase. The procedure:
as §1

Another data set addresses T3, PPARδ (Homo sapiens, UniProt Q03181).
T3 construct: Full-length PPARs plasmid DNA, reporter DNA, which has luciferase activity; expressed in transfected cells; host or cells: CV-1 cells
T3 sequence (Q03181 1-441): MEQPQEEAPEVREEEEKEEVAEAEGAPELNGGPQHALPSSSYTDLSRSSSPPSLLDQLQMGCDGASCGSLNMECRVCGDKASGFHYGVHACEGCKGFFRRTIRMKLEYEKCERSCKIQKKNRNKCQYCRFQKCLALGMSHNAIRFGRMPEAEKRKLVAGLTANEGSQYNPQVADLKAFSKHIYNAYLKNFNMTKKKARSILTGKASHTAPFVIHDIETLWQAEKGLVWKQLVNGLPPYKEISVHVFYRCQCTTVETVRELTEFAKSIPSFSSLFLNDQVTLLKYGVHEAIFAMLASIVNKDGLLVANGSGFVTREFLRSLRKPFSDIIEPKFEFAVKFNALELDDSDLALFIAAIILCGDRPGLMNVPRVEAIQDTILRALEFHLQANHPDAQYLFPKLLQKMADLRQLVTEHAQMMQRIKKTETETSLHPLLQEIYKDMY
The description is as above. Conditions: 24 hours treatment, luciferase calibrated with β-galactosidase. Format: cell-based. The protocol: as §1

A further data set concerns CV-1 cells. The data set can be described thus: MTT assay (cell toxicity). Type of data set: cell-based. Conditions: 24 hours, at the concentration of 50,000 times of the EC50 (1.87 nM) value. The procedure:
Toxicity was tested by MTT assay for HK101225 prepared in Example 4. MTT is a water-soluble, yellow substance. However, when introduced in a living cell, it is transformed into a water-insoluble, purple crystal by the mitochondrial dehydrogenase. Cell toxicity can be tested by dissolving this substance in dimethylsulfoxide and measuring light absorbance at 550 nm. The test was performed as follows.
CV-1 cells were inoculated on a 96-well plate, 5,000 cells/well. After culturing for 24 hours in a humidified culture system of 37 °C containing 5 % of carbon dioxide, the cells were treated with HK101225 at various concentrations. MTT reagent was added after 24 hours of culturing. After culturing for about 15 minutes, the purple crystal was dissolved in dimethylsulfoxide and absorbance was measured with a microplate reader to confirm cell toxicity.
Background: Formazan colour is commonly taken as a measure of viable cells.

pEC50: −log10 of the molar value. Where only a bound is given, the exact number is not on record here.

The values below come from patent publication EP1841748B1, “ORGANOSELENIUM CONTAINING COMPOUNDS AND THEIR USE” (Seoul National University Industry Foundation, priority 2004, dated 2006).

The pEC50 is the EC50 on a negative log10 scale, so that one unit is a factor of ten. High values mean a small EC50, low ones a large EC50.

On to `Cc1cc(SCc2sc(-c3ccc(C(F)(F)F)cc3)nc2C)ccc1OCC(=O)O` [GW501516, [2-methyl-4-[[[4-methyl-2-[4-(trifluoromethyl)phenyl]-1,3-thiazol-5-yl]methyl]sulfanyl]phenoxy]acetic acid, reference compound], for which, in data set [1], the “increase in body weight” value was found to be 21% and the “increase in body weight relative to the vehicle group” value is listed as “about 1/5”. Moreover, the “change of blood sugar level with time” value in data set [2] (glucose 1.5 g/kg abdominally) was “blood sugar level lower than that of the vehicle group, but did not restore to the normal level”.

Regarding `Cc1cc([Se]Cc2sc(-c3ccc(C(F)(F)F)cc3)nc2C)ccc1OCC(=O)O` [HK101225, 2-[4-[[2-[4-(trifluoromethyl)phenyl]-4-methylthiazol-5-yl]methylselanyl]-2-methylphenoxy]acetic acid], the pEC50 at PPARα was under 5.00; on PPARγ, under 5.00; at PPARδ, 8.73. In addition, the toxicity entry in the data set on CV-1 cells is given as “no toxicity”. Besides, in data set [1], the “increase in body weight” value turned out to be 21%. The “increase in body weight relative to the vehicle group” value in data set [1] was “about 1/5”. Further, the “fasting blood sugar level” value in data set [2] (compared with vehicle and GW501516 groups) was “lower fasting blood sugar level than the groups to which the vehicle and GW501516 were administered”. For the same molecule, the “time to complete glucose clearance” value in data set [2] (glucose 1.5 g/kg abdominally) is 100 min. Further, the “change of blood sugar level with time” value in data set [2] (glucose 1.5 g/kg abdominally) is “rapid decrease of blood sugar level between 20 and 40 minutes”.
